Experiments:
[1] = test system: HaCaT cells; experiment: qPCR of TSLP isoform mRNA in challenged HaCaT keratinocytes; format: cell-based, human; conditions: 24 hours challenge
Procedure: RNA was extracted using the RNeasy Micro Kit (Qiagen). RNA was reverse transcribed with oligo(dT) and ImProm-II™ Reverse Transcriptase (Promega). Quantitative real-time PCRs were performed with Fast SYBR Green PCR kit on the Applied Biosystems 7900HT Fast RT-PCR System (Applied Biosystems). Results were quantified using the 2-DCt method (Livak and Schmittgen, Methods, 2001). Gene expression was normalized to the expression of the housekeeping gene, gapdh.
Caco2 cells were cultured in DMEM supplemented with 10% FBS, 1% Glutamine, 1% non-essential aminoacids, 1% Penicillin-Streptomycin. HaCaT cells were cultured in DMEM supplemented with 10% FBS, 1% Glutamine, 1% Penicillin-Streptomycin. For growth on transwell inserts (Corning), 2×10^5 caco2 cells were seeded on 6 mm^2 transwells and grown for 10-12 days, until transepithelial resistance was roughly […]. Cells were infected with bacteria in the absence of antibiotics at a multiplicity of infection of 1:100 for one hour. Then medium was replaced with complete medium containing 100 μg/mL Gentamicin and the cells were cultured for a further 23 hours. HaCaT cells were challenged with calcitriol, an active form of vitamin D, (10 μM, Enzo Life Sciences), or poly(I:C) (1 μg/mL) for 24 hours. At the end of the challenge cells were lysed in Trizol (Ambion, Life Technologies) reagent for RNA extraction or RIPA buffer for protein extraction.

[2] = test system: peripheral blood mononuclear cells (PBMC); experiment: bidirectional allogenic mixed lymphocyte reaction (MLR), IFNgamma by ELISA; format: cell-based, human; conditions: PBMC from two donors 1:1, increasing doses, 5 days
Source text: Buffy coats were obtained from healthy donors (Abbiategrasso hospital, Italy) with informed consent for research use. Peripheral blood mononuclear cells (PBMC) were separated with Ficoll (GE Healthcare) gradient centrifugation and then resuspended and cultured in RPMI 1640 medium (Lonza) containing 10% fetal bovine serum (Gibco), 1% Glutamine 1% pyruvate, 1% non essential AA and 1% Penicillin-Streptomycin. PBMC from two different donors were co-cultured (1:1) in presence of long and short TSLP at different concentrations. After 5 days supernatants were collected and IFNgamma levels were measured by ELISA (R&D systems).

[3] = test system: C57Bl/6J mice; experiment: LPS-induced endotoxic shock, serum cytokines; format: in vivo, mouse; conditions: for level of inflammatory cytokines in the serum: endotoxin shock model, short TSLP fragments
Procedure: (§1) Mice were treated intraperitoneally (i.p.) with short TSLP at 50, 100, 200 μg per mouse in 200 μl of injectable water twice, 12 hours and 2 hours, before LPS administration (n=8 per group). Control mice received water. LPS (E. coli serotype 026:B6; Sigma-Aldrich) was injected intraperitoneally (i.p.) at 200 μg per mouse in 200 μl of injectable water. After 6 hours mice were euthanized by exsanguination under anesthesia and blood was collected. IFNgamma, IL6 and IL12-p40 levels were detected in the serum by ELISA (R&D Systems), according to manufacturer's instructions.

[4] = test system: myeloid dendritic cells (mDC); experiment: flow cytometry of STAT5 pY694 in myeloid dendritic cells; format: cell-based, human; conditions: 15 minutes, 3.5 nM, in the absence and in the presence of the short isoform
Procedure: Control conditions included cells either left unstimulated (negative control) or incubated with sodium pervanadate ([…], positive control, data not shown). At the end of incubation cells were rapidly spun, fixed with BD Cytofix™ Buffer for 15 minutes at 37° C. and permeabilized with BD™ Phosflow Perm Buffer III on ice for 30 minutes, followed by intracellular staining using mouse anti-pSTAT5 (pY694) antibody (45/Stat5, BD Biosciences) or isotype antibody (MOPC-21). Samples were acquired on a BD Cantoll flow cytometer (BD Biosciences) and analyzed with FlowJo software (v8.7, Tree Star).

[5] = test system: myeloid dendritic cells (mDC); experiment: CCL17 and CCL22 ELISA in supernatants of myeloid DCs; format: cell-based, human; conditions: 24 hours, in the absence and in the presence of the short isoform
Procedure: (§2) Myeloid BDCA1+ cells were isolated from PBMC using CD1c (BDCA-1)+ Dendritic Cell Isolation Kit (Miltenyi Biotec) according to the manufacturer's instructions. […] Cells were then washed and cocultured with naïve CD4 T cells from a different donor (ratio 1 DC: 5 T). CD4 cells were isolated using naive CD4+ T Cell Isolation Kit II (Miltenyi Biotec) according to the manufacturer's instructions. After 6 days supernatants were collected and cells were restimulated for 4 hours with PMA (phorbol 12-myristate 13-acetate, 50 ng/ml) and ionomycin (1 ug/ml); for the last 3 hours brefeldin A (10 ug/ml) was added to the culture. Intracellular staining for TNF and IFNgamma positive cells was performed afterwards. CCL17, CCL22 and IFNgamma levels were assessed in the supernatant of DC or of the DC-T culture by ELISA (R&D Systems).

[6] = test system: intestinal mucosa from ulcerative colitis patients; experiment: ex-vivo organ culture of intestinal mucosa from ulcerative colitis patients; set-up: species or system human; conditions: 100 and 1000 ng/ml
Procedure: The activity of short TSLP on IBD tissues was assessed directly on human intestinal mucosa. Briefly, IBD mucosa was separated from the submucosa and mounted as described (Tsilingiri K., et al. J Vis Exp. 2013).

[7] = test system: monocyte-derived dendritic cells; experiment: monocyte-derived DCs conditioned 24 h, then Salmonella challenge; cytokine secretion by cytometric bead assay; format: cell-based, human; conditions: 24 h conditioning, then LPS or bacterial stimulation
Procedure: (§3) Peripheral CD14^+ monocytes were isolated from PBMC using human CD14^+ microbeads (Miltenyi Biotec) according to the manufacturer's instructions. Cells were then cultivated in complete RPMI 1640 medium in the presence of IL4 (2.5 ng/ml) and GM-CSF (5 ng/ml) (BD Biosciences) for 6 days to obtain monocyte-derived dendritic cells. The percentage and the phenotype of cell subsets were evaluated before and after differentiation by flow cytometry. Dendritic cells were seeded in complete RPMI 1640 medium at 1×10^6/ml in 48-well plates in the presence of short TSLP at different concentrations or culture medium alone. After 24 hours of culture dendritic cells were gently washed and challenged with Salmonella typhimurium FB62 (MOI 1:1) for 1 hour. Bacteria were then washed out and the medium replaced with medium containing 100 μg/ml gentamycin. Cytokine secretion was assessed after 24 hours by cytometric bead assay Flex sets (BD Biosciences). CBA were acquired on a BD Accuri C6 (BD Biosciences) and analyzed with FCAP software (BD Biosciences).

[8] = test system: monocyte-derived dendritic cells; experiment: FACS analysis of activation status of monocyte derived DCs; format: cell-based, human; conditions: 24 h conditioning; immature and Salmonella treated (mature) DCs
Procedure: as §3
Cells were stained with monoclonal anti-human fluorescently conjugated antibodies: CD14 (M5E2), CD19 (HIB19), CD11c (B-ly6), CD45RA (HI100), CD3 (UCHT1), TNF (Mab11), IFNg (4S.B3), TNF (Mab11) from BD Biosciences; CD4 (RPA-T4) from Ebioscience; CD1a (HI149) and TSLPR (1B4) from Biolegend.

[9] = test system: naive CD4 T cells cocultured with mDC; experiment: conditioned myeloid DCs cocultured with naive CD4 T cells; format: cell-based, human
Procedure: as §2

[10] = test system: tslpr-/- mice; experiment: LPS-induced endotoxic shock in TSLPR knock-out mice; format: in vivo, mouse; conditions: 200 μg i.p.
Procedure: Female C57Bl/6J mice (8 to 10 weeks of age) were obtained from Charles River Laboratories (Milan, Italy). TSLPR-deficient mice on the C57Bl/6J background were provided by Dr W. J. Leonard (Laboratory of Molecular Immunology, NHLBI, USA). Mice were bred and maintained at IFOM-IEO campus animal facility under specific pathogen-free conditions. All experiments were performed in accordance with the guidelines established in the Principle of Laboratory Animal Care (directive 86/609/EEC).
as §1

[11] = test system: mice with DSS-induced colitis; experiment: DSS-induced colitis; format: in vivo, mouse; conditions: 3% DSS, 200 μg i.p. every other day
Procedure: Colitis was induced by adding 3% (w/v) DSS (TdB Consultancy AB, Uppsala, Sweden) to drinking water for 9 days. Mice were treated i.p. with short TSLP (200 μg in 200 μl of injectable water) the day before DSS administration and every other day during the entire study. Mice were monitored daily for weight loss.

[12] = i.p. 12 hours and 2 hours before LPS, 6 hours after LPS, dose-dependent

## C=C1/C(=C\C=C2/CCC[C@]3(C)[C@@H]([C@H](C)CCCC(C)(C)O)CC[C@@H]23)C[C@@H](O)C[C@@H]1O [vitamin D, calcitriol]
[1]
  short TSLP mRNA: significantly upregulated mRNA for short TSLP

## C terminal peptide: C terminal fragment of short TSLP, aa 24-63 of SEQ ID NO: 1, mw 4.8 KDa (ATQAMKKRRKRKVTTNKCLEQVSQLQGLWRRFNRPLLKQQ; listed as Homo sapiens)
[2]
  IFN-gamma release in MLR: inhibiting IFNgamma secretion
[3]
  level of inflammatory cytokines in the serum: able to reduce the level of inflammatory cytokines in the serum

## N terminal: N terminal fragment of short TSLP, aa 4-40 of SEQ ID NO: 1, mw 4.2 KDa (MKTKAALAIWCPGYSETQINATQAMKKRRKRKVTTNK; listed as Homo sapiens)
[2]
  IFN-gamma release in MLR: inhibiting IFNgamma secretion
[3]
  level of inflammatory cytokines in the serum: did not exert any effects

## long TSLP: recombinant human TSLP long isoform, aa. 29-159 of SEQ ID NO: 2, from R&D Systems, or produced in house in baculovirus
[2]
  IFN-gamma release in MLR: increasing the amount of IFN-gamma released
[4]
  STATS phosphorylation: significantly increased
[5]
  secretion of CCL17: significantly increased
  secretion of CCL22: significantly increased
[6]
  ongoing inflammation in the tissue: only short TSLP ameliorated the ongoing inflammation

## polyI:C
[1]
  long TSLP mRNA: upregulated the long isoform

## short TSLP: short TSLP peptide, aa 4-63 of SEQ ID NO: 1, mw 7 KDa, synthesized in house
[2]
  inhibition of the release of IFN-gamma: 50%
[7]
  capacity to release IL12-p70: strongly affected
  capacity to release IL-1beta: strongly affected
  capacity to release IL-6: strongly affected
  capacity to release IL-10: strongly affected
  capacity to release TNF-alfa: strongly affected
[8]
  expression of maturation markers CD80, CD86 or HLA-DR: no change
[9]; conditioned DCs 24 h, 6 days coculture, IFNgamma intracellular staining
  percentage of Th1 cells: reducing the percentage of Th1 cells
[9]; conditioned DCs 24 h, supernatant day 6
  IFN-gamma secretion in DC-T coculture: reducing
[9]; equimolar ratio with long TSLP
  counter effect to long TSLP on myeloid DCs: does not mediate a counter effect to the long isoform
[3]; [12]
  IFN-γ in the sera: significant decrease
  IL-6 in the sera: significant decrease
  IL-12p40 in the sera: significant decrease
[10]
  anti-inflammatory effect (serum cytokines) in TSLPR knock-out mice: also manifested
[11]
  body weight loss: significantly limiting weight loss
[6]
  ongoing inflammation in the tissue: ameliorated the ongoing inflammation in the tissue
  production of mucous by goblet cells: restored the production of mucous by goblet cells
  tissue architecture: normalized tissue architecture

Source: patent publication US20160052985A1, “THYMIC STROMAL LYMPHOPOIETIN FRAGMENTS AND USES THEREOF” (IEO - ISTITUTO EUROPEO DI ONCOLOGIA SRL, priority 2013, published 2016)
